This note sets out measurements from ChEMBL document CHEMBL1133320, “Inhibition of the ras-dependent mitogenic pathway by phosphopeptide prodrugs with antiproliferative properties” (Bioorg Med Chem Lett, 2000).

Assay [1] concerns the target T1, Growth factor receptor-bound protein 2 (Homo sapiens, UniProt P62993). Description: Dissociation constant of compound was determined from affinity of compound towards Growth factor receptor bound protein 2 measured by fluorescence; Non-detectable.
Assay [2] deals with T1, Growth factor receptor-bound protein 2. Description: Dissociation constant of compound was determined from affinity of compound towards Growth factor receptor bound protein 2 measured by fluorescence.

Numbered stars: 1 amine (or outer) side, 2 acyl side, 3 side chain; on linkers, the order of the positions; unused ones are H or OH. Square brackets hold non-standard residues; d marks the D form. Peptide text beside a SMILES is read from it. ξ: configuration not given here. X2 = CC(C)(C)C(=O)SCCOP(=O)(OCCSC(=O)C(C)(C)C)Oc1ccc(C[C@H](N[*:1])C(=O)[*:2])cc1; X1 = CC(=O)SCCOP(=O)(OCCSC(C)=O)Oc1ccc(C[C@H](N[*:1])C(=O)[*:2])cc1; F2Pmp = N[C@@H](Cc1ccc(C(F)(F)P(=O)(O)O)cc1)C(=O)O; Pmp = N[C@@H](Cc1ccc(CP(=O)(O)O)cc1)C(=O)O; pY = N[C@@H](Cc1ccc(OP(=O)(O)O)cc1)C(=O)O; ξP = O=C(O)C1CCCN1

T1 sequence (P62993 whole entry): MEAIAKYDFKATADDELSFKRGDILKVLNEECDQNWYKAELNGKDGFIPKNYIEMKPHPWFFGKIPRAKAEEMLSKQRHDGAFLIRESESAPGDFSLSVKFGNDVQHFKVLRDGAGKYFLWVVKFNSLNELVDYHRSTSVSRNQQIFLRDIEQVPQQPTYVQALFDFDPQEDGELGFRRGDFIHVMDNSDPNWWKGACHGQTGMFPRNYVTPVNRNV

For orientation: Kd means the free concentration of one partner at which half of the binding sites on the other are occupied at equilibrium, for simple one-to-one binding. `CC(=O)SCCOP(=O)(OCCSC(C)=O)Oc1ccc(C[C@H](NC(=O)[C@H](Cc2ccccc2)NC(=O)[C@@H]2CCCN2C(C)=O)C(=O)N[C@H](C(=O)N[C@@H](CC(N)=O)C(=O)N[C@H](C(=O)N2CCC[C@H]2C(N)=O)C(C)C)C(C)C)cc1` (Ac-PF[X1]VNVP-NH2): the Kd result in assay [1] is reported as “Not Active”.
The same measure, in the same setting: the entry for `CC(=O)N1CCC[C@H]1C(=O)N[C@@H](Cc1ccccc1)C(=O)N[C@@H](Cc1ccc(OP(=O)(OCCSC(=O)C(C)(C)C)OCCSC(=O)C(C)(C)C)cc1)C(=O)N[C@H](C(=O)N[C@@H](CC(N)=O)C(=O)N[C@H](C(=O)N1CCCC1C(N)=O)C(C)C)C(C)C` (stereo partly specified) (Ac-PF[X2]VNV[ξP]-NH2) is “Not Active”.
The molecule `CC(=O)N1CCC[C@H]1C(=O)N[C@@H](Cc1ccccc1)C(=O)N[C@@H](Cc1ccc(OP(=O)(O)O)cc1)C(=O)N[C@H](C(=O)N[C@@H](CC(N)=O)C(=O)N[C@H](C(=O)N1CCC[C@H]1C(N)=O)C(C)C)C(C)C` (Ac-PF[pY]VNVP-NH2) gave a Kd in assay [2] of 30 nM.
On the same count and under the same terms, the figure for `CC(C)[C@H](NC(=O)[C@H](CC(N)=O)NC(=O)[C@@H](NC(=O)[C@H](Cc1ccc(C(F)(F)P(=O)(O)O)cc1)NC(=O)[C@H](CO)NC(=O)[C@@H]1CCCN1)C(C)C)C(=O)N[C@@H](CCC(N)=O)C(=O)N[C@@H](CC(N)=O)C(=O)O` (H-PS[F2Pmp]VNVQN-OH) is 200 nM; for `CC(C)[C@H](NC(=O)[C@H](CC(N)=O)NC(=O)[C@@H](NC(=O)[C@H](Cc1ccc(CP(=O)(O)O)cc1)NC(=O)[C@H](CO)NC(=O)[C@@H]1CCCN1)C(C)C)C(=O)N[C@@H](CCC(N)=O)C(=O)N[C@@H](CC(N)=O)C(=O)O` (H-PS[Pmp]VNVQN-OH) it is 260 nM; for `CC(C)[C@H](NC(=O)[C@H](CC(N)=O)NC(=O)[C@@H](NC(=O)[C@H](Cc1ccc(OP(=O)(O)O)cc1)NC(=O)[C@H](CO)NC(=O)[C@@H]1CCCN1)C(C)C)C(=O)N[C@@H](CCC(N)=O)C(=O)N[C@@H](CC(N)=O)C(=O)O` (H-PS[pY]VNVQN-OH) it is 18 nM.
